The record followed here is patent publication US12325696B2, “Indazole derivative, preparation method therefor, and pharmaceutical application thereof” (JIANGSU HENGRUI MEDICINE CO., LTD., priority 2019, dated 2025).

Holding throughout (format): cell-based
Test [1] deals with estrogen receptor reporter gene. Briefly: Inhibition of estrogen receptor reporter gene activity (ERE-luc luciferase) in MCF7/ERE-luc cells. The following applies: Homo sapiens, 0.1 nM β-estradiol, 20 hours, read-out: IC50 of inhibitory activity on the activity of the estrogen receptor reporter gene. The protocol:
MCF7 cells MCF7/ERE-luc (ATCC, HTB-22) expressing the luciferase reporter gene ERE-luc (synthesized by GENEWIZ, Inc.) controlled by the estrogen receptor response element were cultured in MEM (GE Healthcare, SH30024.01) medium containing 10% fetal bovine serum and 500 µg/ml G418. On the first day of the experiment, MCF7/ERE-luc cells were seeded in a 96-well plate with incomplete MEM medium containing 10% fetal bovine serum treated with activated charcoal (BioSun, BS-0004-500) at a density of 30,000 cells/well (100 μl of cell suspension per well), and the plate was incubated in a cell incubator at 37° C. and 5% CO2 overnight. On the second day, 10 μl of β-estradiol (SIGMA, E2758-250MG) solution formulated with the above incomplete medium or test compound solution of different concentrations formulated with the above incomplete medium was added to each well, wherein the final concentration of β-estradiol was 0.1 nM, and the final concentrations of the compound were nine concentration points obtained by a 10-fold gradient dilution starting from 10 μM, a blank control containing 0.5% DMSO was set, and the plate was incubated in a cell incubator at 37° C. and 5% CO2 for 20 hours. On the third day, the 96-well plate was taken out, and 100 μl of ONE-Glo™ Luciferase Assay system (Promega, E6110) was added to each well to determine the activity of luciferase. The plate was left to stand at room temperature for 3 minutes until the cells were fully lysed, and the luminescence signal values were measured using a multi-label microplate reader (PerkinElmer, VICTOR 3). The IC50 values of the inhibitory activity of the compounds were calculated using Graphpad Prism software based on the concentrations and luminescence signal values of the compounds.
The inhibitory effect of the compounds of the present disclosure on the activity of the estrogen receptor reporter gene was determined by the above test. A graph of the chemiluminescence signal values versus the logarithmic concentrations of the compound was made using Graghpad Prism.
On the technique in general: Reporter assays use an easily measured gene product as a stand-in for the process of interest.

Test [2] has as its system MCF7 cell. The experiment in a line: Inhibition of proliferation of MCF7 cell (CellTiter-Glo, 144 hours). The following applies: Homo sapiens; for IC50: MCF7, CellTiter-Glo, read-out: IC50 of the inhibitory effect on the proliferation of MCF7 cell; for Emax: MCF7 cell proliferation, read-out: Maximum inhibition. The protocol:
(§1) MCF7 cells (ATCC, HTB-22) were cultured in MEM (GE Healthcare, SH30024.01) complete medium containing 10% fetal bovine serum. On the first day of the experiment, MCF7 cells were seeded in a 96-well plate with the complete medium at a density of 3,000 cells/well (100 μl of cell suspension per well), and the plate was incubated in a cell incubator at 37° C. and 5% CO2 overnight. On the second day, the medium in each well was replaced with 135 μl of MEM incomplete medium containing 2% fetal bovine serum. 15 μl of test compound solution of different concentrations formulated with the incomplete medium was added to each well, wherein the final concentrations of the compound were nine concentration points obtained by a 4-fold gradient dilution starting from 100 nM. A blank control containing 0.5% DMSO was set. The plate was incubated in a cell incubator at 37° C. and 5% CO2 for 144 hours. On the eighth day, the 96-well plate was taken out, and 150 μl of CellTiter-Glo® Luminescent Cell Viability Assay (Promega, G7573) was added to each well. The plate was left to stand at room temperature for 10 minutes, and the luminescence signal values were measured using a multi-label microplate reader (PerkinElmer, VICTOR 3). The IC50 values of the inhibitory activity of the compounds were calculated based on the concentrations and luminescence signal values of the compounds using Graphpad Prism software.
A graph of the chemiluminescence signal values versus the logarithmic concentrations of the compound was made using Graghpad Prism to obtain the IC50 values of the compound.
In general terms: Cellular ATP, detected with luciferase, serves as a proxy for viable cell number.

For test [3], the system named is MCF7 ERαY537S. Briefly: Inhibition of proliferation of MCF7 cell expressing ERα Y537S mutant. The following applies: Homo sapiens, 144 hours; for Emax: read-out: Maximum inhibition.
Text: (§2) The mutants ERα Y537S and ERα D538G of human estrogen receptor α (ERαs) protein were obtained by site-directed mutagenesis using the cDNA of wild-type ESR1 gene (Accession No. NM000125) as a template according to double-primer PCR. The primer sequences used for mutagenesis are as follows (the nucleotides underlined are the sites of mutagenesis):
(§3) The cDNA of mutant ESR1 was cloned into the target lentiviral vector pCDH-CMV-MCS-EF1-Puro (SBI, CD510B-1). The lentiviral plasmid with the mutant ESR1 gene sequence and the lentiviral packaging plasmids pVSV-G and pCMV-dR8.91 (SBI, LV500A-1) were transfected into HEK-293T cells (ATCC, CRL-3216) by Lipofectamine 3000 Transfection Reagent (ThermoFisher Scientific, Cat #L3000075). 48 hours after the transfection, the supernatant of the virus-containing DMEM high-glycemic medium (GE Healthcare, SH30243.01) containing 10% FBS was filtered, and ultracentrifuged to obtain the virus pellet. The virus pellet was resuspended in an appropriate amount of MEM medium (GE Healthcare, SH30024.01) containing 10% FBS, non-essential amino acids (SIGMA, M7145-100ML) and sodium pyruvate (SIGMA, S8636-100ML), and the resulting suspension was added to MCF7 cells (ATCC, HTB-22). Polybrene (SIGMA, H9268-5G) at a final concentration of 8 µg/ml was added, and the cells were incubated overnight. Two days after the transfection, […] puromycin (invitrogen, A11138-03) was added to the cell culture medium for resistance screening. After about two weeks, the MCF7 cell line capable of stably expressing ERαY537S and ERα D538G mutants was obtained.
as §1, with “MCF7 cells expressing ERα mutant were cultured” for “MCF7 cells (ATCC, HTB-22) were cultured”, “the experiment, the cells were” for “the experiment, MCF7 cells were”, “control containing 0.500 DMSO was” for “control containing 0.5% DMSO was”, “C. and […] for” for “C. and 5% CO2 for”, “and 150 of CellTiter-Glo®” for “and 150 μl of CellTiter-Glo®”

Test [4] deals with MCF7 D538G. Briefly: Inhibition of proliferation of MCF7 cell expressing ERα D538G mutant. The conditions noted are these: Homo sapiens, 144 hours; for Emax: read-out: Maximum inhibition.
Text: as §2, §3
as §1, with “MCF7 cells expressing ERα mutant were cultured” for “MCF7 cells (ATCC, HTB-22) were cultured”, “the experiment, the cells were” for “the experiment, MCF7 cells were”, “control containing 0.500 DMSO was” for “control containing 0.5% DMSO was”, “C. and […] for” for “C. and 5% CO2 for”, “and 150 of CellTiter-Glo®” for “and 150 μl of CellTiter-Glo®”

In the case of `CN(C)C(=O)/C=C/CN1CCC(Oc2ccc(/C(=C(/CC(F)(F)F)c3ccccc3)c3ccc4[nH]nc(F)c4c3)cn2)CC1` [Example 9, (E)-N,N-Dimethyl-4-(4-((5-((Z)-4,4,4-trifluoro-1-(3-fluoro-1H-indazol-5-yl)-2-phenylbut-1-en-1-yl)pyridin-2-yl)oxy)piperidin-1-yl)but-2-enamide], the IC50 in test [1] came to 2 nM; in test [2], 0.1 nM; in test [3], 2 nM; in test [4] it was 0.8 nM. Besides, the Emax was found to be 110% in test [2], 94% in test [3] and 108% in test [4].

As to `CC#CC(=O)N1CCC(Oc2ccc(/C(=C(/CC(F)(F)F)c3ccccc3)c3ccc4[nH]nc(F)c4c3)cn2)CC1` [Example 10, (Z)-1-(4-((5-(4,4,4-Trifluoro-1-(3-fluoro-1H-indazol-5-yl)-2-phenylbut-1-en-1-yl)pyridin-2-yl)oxy)piperidin-1-yl)but-2-yn-1-one], the IC50 in test [1] was determined as 8 nM; in test [2] it was 0.3 nM; in test [3], 7 nM; in test [4] it was 4 nM. Also, the results for the Emax in test [2], in test [3] and in test [4] were 104%, 86% and 104%, respectively.

On to `CNC(=O)/C=C/CN1CCC[C@@H](Oc2ccc(/C(=C(/CC(F)(F)F)c3ccccc3)c3ccc4[nH]nc(F)c4c3)cn2)C1` [Example 11, (E)-N-Methyl-4-((R)-3-((5-((Z)-4,4,4-trifluoro-1-(3-fluoro-1H-indazol-5-yl)-2-phenylbut-1-en-1-yl)pyridin-2-yl)oxy)piperidin-1-yl)but-2-enamide], for which the IC50 in test [1] stood at 3 nM; in test [2], 0.5 nM; in test [3], 2 nM; in test [4], 1 nM. Also, the Emax in test [2] amounted to 110%; in test [3], 107%; in test [4] it was 100%.

As for `O=C(/C=C/CN1CCC[C@@H](Oc2ccc(/C(=C(/CC(F)(F)F)c3ccccc3)c3ccc4[nH]nc(F)c4c3)cn2)C1)NC1CCOCC1` [Example 13, (E)-N-(Tetrahydro-2H-pyran-4-yl)-4-((R)-3-((5-((Z)-4,4,4-trifluoro-1-(3-fluoro-1H-indazol-5-yl)-2-phenylbut-1-en-1-yl)pyridin-2-yl)oxy)piperidin-1-yl)but-2-enamide], the IC50 turned out to be 3 nM in test [1], 0.6 nM in test [2], 5 nM in test [3] and 3 nM in test [4]. In addition, the Emax in test [2] was found to be 88%; in test [3], 104%; in test [4], 107%.

For `CC(C)(C)NC(=O)/C=C/CN1CCC[C@@H](Oc2ccc(/C(=C(/CC(F)(F)F)c3ccccc3)c3ccc4[nH]nc(F)c4c3)cn2)C1` [Example 16, (E)-N-(Tert-butyl)-4-((R)-3-((5-((Z)-4,4,4-trifluoro-1-(3-fluoro-1H-indazol-5-yl)-2-phenylbut-1-en-1-yl)pyridin-2-yl)oxy)piperidin-1-yl)but-2-enamide], the IC50 in test [1] was 5 nM; in test [2] it was 0.8 nM; in test [3], 4 nM; in test [4] it was 2 nM. In addition, the Emax in test [2] was determined as 102%; in test [3], 88%; in test [4], 110%.

As for `O=C(/C=C/CN1CCC[C@@H](Oc2ccc(/C(=C(/CC(F)(F)F)c3ccccc3)c3ccc4[nH]nc(F)c4c3)cn2)C1)NC1CCCC1` [Example 17, (E)-N-Cyclopentyl-4-((R)-3-((5-((Z)-4,4,4-trifluoro-1-(3-fluoro-1H-indazol-5-yl)-2-phenylbut-1-en-1-yl)pyridin-2-yl)oxy)piperidin-1-yl)but-2-enamide], the IC50 in test [1] turned out to be 6 nM; in test [2] it was 0.6 nM; in test [3] it was 3 nM; in test [4], 3 nM. Also, the Emax in test [2] worked out at 96%; in test [3], 102%; in test [4] it was 104%.

For `CC#CC(=O)N1CCC[C@@H](Oc2ccc(/C(=C(/CC(F)(F)F)c3ccccc3)c3ccc4[nH]nc(F)c4c3)cn2)C1` [Example 25, (R,Z)-1-(3-((5-(4,4,4-Trifluoro-1-(3-fluoro-1H-indazol-5-yl)-2-phenylbut-1-en-1-yl)pyridin-2-yl)oxy)piperidin-1-yl)but-2-yn-1-one], the IC50 in test [1] is 3 nM; in test [2], 0.5 nM; in test [3], 1 nM; in test [4] it was 1 nM. In addition, the Emax in test [2] was found to be 109%; in test [3], 107%; in test [4], 112%.

With `C=CC(=O)N1CCC[C@@H](Oc2ccc(/C(=C(/CC(F)(F)F)c3ccccc3)c3ccc4[nH]nc(F)c4c3)cn2)C1` [Example 26, (R,Z)-1-(3-((5-(4,4,4-Trifluoro-1-(3-fluoro-1H-indazol-5-yl)-2-phenylbut-1-en-1-yl)pyridin-2-yl)oxy)piperidin-1-yl)prop-2-en-1-one], the IC50 in test [1] came out at 3 nM; in test [2] it was 0.3 nM; in test [3], 2 nM; in test [4], 1 nM. Moreover, the results for the Emax in test [2], in test [3] and in test [4] were 103%, 104% and 111%, respectively.
